Measurements taken from patent US20240139153A1, “Inhibition of Endothelial ETS Family Transcription Factors Promotes Flow-Dependent Ocular Vessel Regression” (Oklahoma Medical Research Foundation, priority 2020, published 2024).

Key:
[1] = test system: ROP; conditions: intravitreal injection, randomized study; cited from earlier work
[2] = test system: hyaloid vessels; experiment: Hyaloid vessel regression after intravitreal injection; type: in vivo, mice; conditions: intravitreal injection at P5, assessed at P7, versus vehicle-injected littermate controls; final concentration ~10 μmol/L in vitreous
Description: Hyaloid Dissection and Quantification. Hyaloid were dissected and quantified as described previously. Briefly, eyes were enucleated from P4-P8 mice and fixed for 30 min in 4% paraformaldehyde (PFA). The eyes were then transferred to PBS and dissected by removal of the lens and sclera leaving the retinal cup in which the hyaloids were loosely wrapped around the lens. The lens was then carefully removed from which the hyaloids were gently removed. The hyaloids were then transferred in a drop of PBS and flat mounted for imaging by carefully removing the remaining PBS.
Quantification of hyaloid regression was accomplished by drawing an outline of hyaloid flat mounts (labeled with Isolectin-B4) which was then decreased in size by 50% and centered over the hyaloid flat mount. Blind counts of hyaloid vessel number were performed by counting the number of vessels which crossed the 50% outline.
Hyperthermia-induced anesthesia of wild type P5 mice was accomplished by submerging pups in ice for 5-8 min after placing them in a latex blanket wrapped in foil to avoid direct contact between the pup and ice. Once anesthetized (assessed by toe pinch) eyes were administered a drop of proparacaine hydrochloride ophthalmic solution (Akorn), followed by gentle exposure of the eye globe. […] Eyelids were then reclosed around the eye, and erythromycin ophthalmic ointment (Akorn) was applied. […]

[3] = test system: 3D HUVEC cultures; experiment: Vasculogenic 3D collagen assay, regression of 3D lumenized HUVEC cultures; type: cell-based, Human
Description: Vasculogenic 3D collagen assays. Human Umbilical Vein ECs were purchased from Lonza and used from passages 3 to 6 as previously described^42,43. ECs were suspended in 2.5 mg/mL collagen type I matrices, and assays were performed as described^42,43. With the exception that the culture media contained reduced serum supplement (RSII), ascorbic acid, FGF-2, Stem cell factor (SCF) at 40 ng/ml and interleukin-3 (IL-3) were added at 40 ng/ml. Stromal-derived factor-1α (SDF-1α) was added at 200 ng/ml into collagen type I matrices. Cultures were incubated at 37° C. in serum-free defined media and allowed to assemble over time. Cultures were fixed at 72 hr with 3% glutaraldehyde before staining with 0.1% toluidine blue in 30% methanol for nonfluorescent visualization. Lumen area was quantified by using Metamorph software as previously described^42,43. Individual data points were obtained from a triplicate wells and a minimum of 12 independent fields from these wells.
Bioassays with pharmacologic agents and cytokines. […] In some assays, triplicate wells were lysed with sample buffer and Western blots were performed to probe for pro-caspase 3 and actin.
YK-4-279 promotes flow-dependent vascular regression in vitro. […] Importantly, this culture model recapitulates many aspects of in vivo vessel morphology and has previously been used to model vascular regression^40.

[4] = test system: HUVECs; experiment: HUVEC flow chamber study, static versus flow; type: cell-based, Human
Description: Cell Culture/Flow Studies. Flow-based cell culture was performed using HUVECs (ATCC; #PCS-100-010) cultured in complete EGM-2 media (Lonza). HUVECs were cultured on Ibidi Luer^0,6 flow slides and allowed to grow at 37° C. in 5% CO2 for 24 h to a confluency of 80-90%. Slides were then attached to an Ibidi pump system with Perfusion Set Red (1.6 mm, #10962) and exposed to a sheer stress of 10 dyn/cm^2 for 24 h. Static conditions were achieved by similarly plating HUVECs in flow slides that were not exposed to flow. […] Cells were gently washed with 1 mL ice-cold PBS, then fixed and permeabilized by incubation with ice-cold methanol for 5 min. Fixed cells were treated with 1% BSA, 0.02% Triton X-100 for 1 hr at room temperature. Primary and secondary antibodies were added in 1% BSA and incubated for 2 hr at room temperature.
HUVECs grown in this 3D culture model form vascular lumens despite the absence of blood flow. […] This possibility is supported by a recent report that the transcriptional consequences of ERG inhibition are greatly mitigated in ECs exposed to sheer stress^58.

[5] = test system: healthy retinal vessels; experiment: Healthy retinal vessels of adult wild type mice after intravitreal injection; type: in vivo; conditions: 48 hr after intraocular injection
Excerpt: Vascular length (FIG. 8B; n=4) and branch points (FIG. 8C; n=4) from retinas treated as in (FIG. 8A) were quantified using AutoTube and normalized to retinal area per image. NS=not significant (two-tailed Student's t-test). Error bars=S.D.

[6] = test system: retinal neovessels; conditions: OIR mice
Description: OIR Studies/Quantification. […] Generally, pups with their dams were maintained in room air from birth until P7. From P7 to P12 pups were exposed to 75% O2 in an oxygen chamber regulated by an OxyCycler Model A84. After 2.5 d of oxygen exposure, the dams were replaced with healthy lactating dams to prevent oxygen toxicity. At P12 pups were returned to room air until P18.
Two days after the injection, P20 mice were euthanized and retinas were dissected and immunostained for CD31 to quantify retinal vascular area as previously described^45.

[7] = inhibitor-injected eye relative to control eye

active caspase-3 staining ([4]; flow conditions, 10 dyn/cm^2)	active caspase-3 staining ([4]; static conditions, 5 μM, 24 hr)	effects on retinal vascularization (vascular length, branch points) [5]	Molecule	efficacy versus conventional laser-based therapy for treating ROP [1]	reduction in hyaloid vessel number [2]	concentrations giving significant, dose-dependent loss of vascular luminal area ([3]; 3D HUVEC cultures, 48 h treatment, toluidine blue stain)	pro-caspase 3 signal (Western blot) ([3]; 3D HUVEC cultures, FIG. 5C)	extent of vascular regression (3D HUVEC lumen area) on co-incubation with cytokines ([3]; co-incubation of TNFα or IL1β with YK-4-279, versus YK-4-279 alone)	alignment of HUVECs in the direction of flow ([4]; flow conditions, 10 dyn/cm^2)	cell number ([4]; flow conditions, 10 dyn/cm^2)	cell number ([4]; static conditions, 5 μM, 24 hr)	mice showing an increase in neovessels [6, 7]	mice with a decrease in retinal neovascular area [6, 7]	decrease in the retinal avascular area ([6]; intravitreal injection at P18, analysed at P20, versus vehicle)	reduction in retinal neovascular area ([6]; intravitreal injection at P18, analysed at P20, versus vehicle-injected contralateral eye)
			bevacizumab: a monoclonal VEGF-A antibody	more effective											
no apparent effect	increased active caspase-3 staining	no effects	COc1ccc(C(=O)CC2(O)C(=O)Nc3c(Cl)ccc(Cl)c32)cc1 (stereo not drawn) [YK-4-279]		~40%	greater than 1.25 μM	Reduced pro-caspase 3 signal	further increases the extent of vascular regression	inhibited the alignment	no apparent effect	significantly reduced cell numbers	one	9 out of 11	~60%	~40%
